Read-outs that look alike come from different tables or passages of the source.
What was measured:
[1] = molecular target: SARS-CoV-2 nsp12/7/8 (RTC) complex (Severe acute respiratory syndrome coronavirus 2, UniProt P0DTD1); assay: biochemical; assay type: biochemical
[2] = system: SARS-CoV-2 (BetaCov/Belgium/GHB-03021/2020); assay: in vitro; details: African green monkey
[3] = system: SARS-CoV-2 (BetaCov/Belgium/GHB-03021/2020); assay: microbe, parasite or virus in culture; details: Severe acute respiratory syndrome coronavirus 2, Vero C1008, read-out: EC50: compound concentration required to inhibit SARS-CoV-2 replication by 50%
[4] = Compounds cytotoxicity in the Vero E6 cell line; details: African green monkey, Vero E6 cells stably expressing GFP, with CP-100356 (P-gp inhibitor), 2 μM
SARS-CoV-2 RTC = SARS-CoV-2 RTC (Severe acute respiratory syndrome coronavirus 2, UniProt P0DTD1); assay type: biochemical; details: competing against RNA or GTP substrates; Lineweaver-Burk plots
SARS-CoV-2 minimal RTC = SARS-CoV-2 minimal RTC (Severe acute respiratory syndrome coronavirus 2, UniProt P0DTD1); assay type: binding
SARS-CoV-2 = details: cited from earlier work
in vitro = details: African green monkey
[5] = system: SARS-CoV-2 (BetaCov/Belgium/GHB-03021/2020)
RNA substrate = assay: Microscale Thermophoresis/Spectral Shift binding assay with RNA substrate (Monolith X); details: data not shown
[6] = primer-extension PAGE assay, 150 nM RTC, 5% DMSO, 30 min preincubation at 37 °C, mean and SD of at least 3 independent experiments
[7] = 500 µM compound, Microscale Thermophoresis, Fig. S3

Compound | selectivity ratio [2] | EC50 [3] | IC50 [1, 6] | mode of inhibition of SARS-CoV-2 RdRp (SARS-CoV-2 RTC) | CC50 (in vitro) | further results
CC(=O)O[C@@H]1CC[C@@]2(C)[C@@H](CC[C@]3(C)[C@@H]2C(=O)C=C2[C@@H]4[C@@H](C)[C@H](C)CC[C@]4(C)CC[C@]23C)[C@@]1(C)C(=O)O [AKBA, 3-O-Acetyl-11-Keto-Beta-Boswellic Acid] | > 20.8 | 4.81 ± 2.15 µM | – | – | – | IC50 [1]: 4.98 ± 1.44 µM; CC50 at 24 h [4]: > 100 µM
CC1(C)CCC(CN2CCN(c3ccc(C(=O)NS(=O)(=O)c4ccc(NCC5CCOCC5)c([N+](=O)[O-])c4)c(Oc4cnc5[nH]ccc5c4)c3)CC2)=C(c2ccc(Cl)cc2)C1 [Venetoclax] | > 118 | 0.85 ± 0.08 µM | 2.37 ± 0.42 µM | noncompetitive mode of inhibition | > 100 µM | response amplitude (SARS-CoV-2 minimal RTC; [7]): 3.9; signal-to-noise ratio (SARS-CoV-2 minimal RTC; [7]): 7.7; binding check to SARS-CoV-2 minimal RTC (SARS-CoV-2 minimal RTC; single concentration of 500 μM of compound): specific binding; EC50 (SARS-CoV-2; ref number not printed in the text (probably 27, Milani et al.), read-out: EC50, inhibition of SARS-CoV-2 replication in cell culture): 6 µM
CC(C)C[C@H](NC(=O)OCc1ccccc1)C(=O)N[C@@H](C[C@@H]1CCNC1=O)C(O)S(=O)(=O)[O-].[Na+] (stereo partly drawn) [GC376] | – | – | – | – | – | SI: selective index, ratio of CC50/EC50 [5]: >5,882
CC(C)C[C@H](NC(=O)OCc1ccccc1)C(=O)N[C@@H](CC1CCNC1=O)C(O)S(=O)(=O)O (stereo partly drawn) [GC376] | – | – | – | – | – | EC50 ([5]; read-out: EC50: compound concentration required to inhibit SARS-CoV-2 replication by 50%): 0.06 ± 0.03 µM; CC50 (Vero E6 GFP): > 100 µM
Cc1oc2c(C)c3oc(=O)c(CCC(=O)N4CCC(C(=O)O)(c5ccccc5)CC4)c(C)c3cc2c1-c1ccccc1 [Cmp_4, 4-phenyl-1-[3-(2,5,9-trimethyl-7-oxo-3-phenylfuro[3,2-g]chromen-6-yl)propanoyl]piperidine-4-carboxylic acid] | > 38.4 | 2.61 ± 0.18 µM | 8.21 ± 4.87 µM | – | – | CC50 at 24 h (in vitro): > 100 µM
O=C(O)c1c(Cl)c(Cl)c(Cl)c(Cl)c1-c1c2cc(I)c(=O)c(I)c-2oc2c(I)c(O)c(I)cc12 [Rose bengal] | > 546 | 0.18 ± 0.02 µM | 0.25 ± 0.0036 µM | mixed model of inhibition | > 100 µM | interaction with RNA substrate (RNA substrate): no evidence of interaction; EC50 (SARS-CoV-2; ref previous studies (number not given; probably 25, Rubekina et al.), read-out: EC50, inhibition of SARS-CoV-2 replication): 0.5 µM
